The source of these data is the supplement of paper PMC8967900.
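Also: ALL cell lines in 384-well plates, five doses spanning 10,000-fold, each plate scaled between vehicle and 100 µmol/L benzalkonium chloride controls, sDSS an adapted area-under-curve metric.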

The first test concerns NALM-16. Kind of test: selective drug sensitivity score (sDSS, relative to normal bone marrow) (sDSS (score)); higher = more potent and effective on the cell line relative to normal bone marrow cells. Particulars: 72 h.
Consider `Nc1nc2cc(-c3ccc4ncc(C(=O)N5CCOCC5)n4c3)ccc2o1` [Serabelisib] (top concentration 10000 nM), for which the “selective drug sensitivity score” value is -1.44.

Take `COc1cccc(-c2ccc(NC(=O)C3=C(C(=O)O)CCC3)c(F)c2)c1` [Vidofludimus] (top concentration 10000 nM): the “selective drug sensitivity score” value stood at 3.5.

With `Cc1cccc(-c2nn3c(c2-c2ccnc4ccc(C(N)=O)cc24)CCC3)n1` [Galunisertib] (top concentration 1000 nM), the “selective drug sensitivity score” value was found to be 0.

With `COc1cc2c(N3CCN(C(=O)Nc4ccc(OC(C)C)cc4)CC3)ncnc2cc1OCCCN1CCCCC1` [Tandutinib] (top concentration 1000 nM), the “selective drug sensitivity score” value is 0.8.

Turning to `Cc1c(F)cc(C(=O)NC2CC2)cc1-c1ccc(C(=O)NCC(C)(C)C)cn1` [Losmapimod] (top concentration 10000 nM), the “selective drug sensitivity score” value was -0.18.

As to `Nc1nc(N)c2nc(-c3cccc(O)c3)c(-c3cccc(O)c3)nc2n1` [TG100-115] (top concentration 10000 nM), the “selective drug sensitivity score” value was determined as 0.5.

As for `C[C@]12CC[C@@H]3c4ccc(O)cc4C[C@@H](CCCCCCCCC[S+]([O-])CCCC(F)(F)C(F)(F)F)[C@H]3[C@@H]1CC[C@@H]2O` (stereo not given in full) [Fulvestrant] (top concentration 1000 nM), the “selective drug sensitivity score” value is 0.

Take `O=C(Nc1cccnc1)N1CCC(Cc2cccc(Oc3ccc(C(F)(F)F)cn3)c2)CC1` [PF-3845] (top concentration 10000 nM): the “selective drug sensitivity score” value stood at 0.36.

With `COc1cc2c(cc1OCCCN1CCCC1)N=C(N)C21CCC1` [A-366] (top concentration 25000 nM), the “selective drug sensitivity score” value is -1.84.

As for `Oc1ncnc2[nH]ncc12` [Allopurinol] (top concentration 10000 nM), the “selective drug sensitivity score” value was -0.64.

On to `CC(C)n1cnc2c(NCCc3ccc(O)cc3)nc(-c3csc4ccccc34)nc21` [StemRegenin_1] (top concentration 10000 nM), for which the “selective drug sensitivity score” value is -1.8.

In the case of `C#Cc1cccc(Nc2ncnc3cc4c(cc23)OCCOCCOCCO4)c1` [Icotinib] (top concentration 10000 nM), the “selective drug sensitivity score” value was 0.

With `CN[C@@H](C)C(=O)N[C@H]1CN(C(=O)CC(C)C)CC[C@H]2CC[C@@H](C(=O)NC(c3ccccc3)c3ccccc3)N2C1=O` [AT-406] (top concentration 10000 nM), the “selective drug sensitivity score” value is -1.26.

Turning to `CC(C)(O)CC(=O)NCCn1ccc2ncnc(Nc3ccc(Oc4cccc(C(F)(F)F)c4)c(Cl)c3)c21` [TAK-285] (top concentration 2500 nM), the “selective drug sensitivity score” value came out at 0.

As to `COc1cc(C)[nH]c(=O)c1CNC(=O)c1c(C)n([C@H](C)C2CCOCC2)c2ccccc12` [CPI-360] (top concentration 10000 nM), the “selective drug sensitivity score” value amounted to 0.

In the case of `Cc1cc2c(C(=O)NC[C@H](C)c3ccccc3)c(O)c(O)cc2c(O)c1-c1c(C)cc2c(C(=O)NC[C@H](C)c3ccccc3)c(O)c(O)cc2c1O` [Sabutoclax] (top concentration 25000 nM), the “selective drug sensitivity score” value was found to be 6.78.

Consider `CC(C)(C)C[C@@H]1N[C@@H](C(=O)N[C@H]2CC[C@H](O)CC2)[C@H](c2cccc(Cl)c2F)[C@]12C(=O)Nc1cc(Cl)ccc12` (top concentration 10000 nM), for which the “selective drug sensitivity score” value is -3.54.

As to `C[C@@H]1C[C@H]2[C@@H]3CCC4=CC(=O)C=C[C@]4(C)[C@@]3(F)[C@@H](O)C[C@]2(C)[C@@]1(O)C(=O)CO` [Dexamethasone] (top concentration 10000 nM), the “selective drug sensitivity score” value was -1.52.

The subject of another test is NALM-6. The test is described as above. The settings on record: 72 h.
Regarding `Nc1nc2cc(-c3ccc4ncc(C(=O)N5CCOCC5)n4c3)ccc2o1` [Serabelisib] (top concentration 10000 nM), the “selective drug sensitivity score” value is -1.44.

As for `COc1cccc(-c2ccc(NC(=O)C3=C(C(=O)O)CCC3)c(F)c2)c1` [Vidofludimus] (top concentration 10000 nM), the “selective drug sensitivity score” value was 3.4.

On to `Cc1cccc(-c2nn3c(c2-c2ccnc4ccc(C(N)=O)cc24)CCC3)n1` [Galunisertib] (top concentration 1000 nM), for which the “selective drug sensitivity score” value is 0.

In the case of `COc1cc2c(N3CCN(C(=O)Nc4ccc(OC(C)C)cc4)CC3)ncnc2cc1OCCCN1CCCCC1` [Tandutinib] (top concentration 1000 nM), the “selective drug sensitivity score” value was 0.

Turning to `Cc1c(F)cc(C(=O)NC2CC2)cc1-c1ccc(C(=O)NCC(C)(C)C)cn1` [Losmapimod] (top concentration 10000 nM), the “selective drug sensitivity score” value amounted to 0.82.

With `Nc1nc(N)c2nc(-c3cccc(O)c3)c(-c3cccc(O)c3)nc2n1` [TG100-115] (top concentration 10000 nM), the “selective drug sensitivity score” value was -0.4.

Turning to `C[C@]12CC[C@@H]3c4ccc(O)cc4C[C@@H](CCCCCCCCC[S+]([O-])CCCC(F)(F)C(F)(F)F)[C@H]3[C@@H]1CC[C@@H]2O` (stereo not given in full) [Fulvestrant] (top concentration 1000 nM), the “selective drug sensitivity score” value came to 0.

As to `O=C(Nc1cccnc1)N1CCC(Cc2cccc(Oc3ccc(C(F)(F)F)cn3)c2)CC1` [PF-3845] (top concentration 10000 nM), the “selective drug sensitivity score” value stood at 2.86.

As to `COc1cc2c(cc1OCCCN1CCCC1)N=C(N)C21CCC1` [A-366] (top concentration 25000 nM), the “selective drug sensitivity score” value was -1.84.

As to `Oc1ncnc2[nH]ncc12` [Allopurinol] (top concentration 10000 nM), the “selective drug sensitivity score” value was -0.04.

Regarding `CC(C)n1cnc2c(NCCc3ccc(O)cc3)nc(-c3csc4ccccc34)nc21` [StemRegenin_1] (top concentration 10000 nM), the “selective drug sensitivity score” value came out at 1.1.

Regarding `C#Cc1cccc(Nc2ncnc3cc4c(cc23)OCCOCCOCCO4)c1` [Icotinib] (top concentration 10000 nM), the “selective drug sensitivity score” value amounted to 0.

For the molecule `CN[C@@H](C)C(=O)N[C@H]1CN(C(=O)CC(C)C)CC[C@H]2CC[C@@H](C(=O)NC(c3ccccc3)c3ccccc3)N2C1=O` [AT-406] (top concentration 10000 nM), the “selective drug sensitivity score” value is -1.26.

With `CC(C)(O)CC(=O)NCCn1ccc2ncnc(Nc3ccc(Oc4cccc(C(F)(F)F)c4)c(Cl)c3)c21` [TAK-285] (top concentration 2500 nM), the “selective drug sensitivity score” value came out at 0.

In the case of `COc1cc(C)[nH]c(=O)c1CNC(=O)c1c(C)n([C@H](C)C2CCOCC2)c2ccccc12` [CPI-360] (top concentration 10000 nM), the “selective drug sensitivity score” value was determined as 0.

Turning to `Cc1cc2c(C(=O)NC[C@H](C)c3ccccc3)c(O)c(O)cc2c(O)c1-c1c(C)cc2c(C(=O)NC[C@H](C)c3ccccc3)c(O)c(O)cc2c1O` [Sabutoclax] (top concentration 25000 nM), the “selective drug sensitivity score” value stood at 14.3.

As to `CC(C)(C)C[C@@H]1N[C@@H](C(=O)N[C@H]2CC[C@H](O)CC2)[C@H](c2cccc(Cl)c2F)[C@]12C(=O)Nc1cc(Cl)ccc12` (top concentration 10000 nM), the “selective drug sensitivity score” value was 6.26.

For `C[C@@H]1C[C@H]2[C@@H]3CCC4=CC(=O)C=C[C@]4(C)[C@@]3(F)[C@@H](O)C[C@]2(C)[C@@]1(O)C(=O)CO` [Dexamethasone] (top concentration 10000 nM), the “selective drug sensitivity score” value is 30.8.

Another test concerns P12-ICHIKAWA
The description is as above. Particulars: 72 h.
In the case of `Nc1nc2cc(-c3ccc4ncc(C(=O)N5CCOCC5)n4c3)ccc2o1` [Serabelisib] (top concentration 10000 nM), the “selective drug sensitivity score” value is -1.54.

On to `COc1cccc(-c2ccc(NC(=O)C3=C(C(=O)O)CCC3)c(F)c2)c1` [Vidofludimus] (top concentration 10000 nM), for which the “selective drug sensitivity score” value was 6.5.

On to `Cc1cccc(-c2nn3c(c2-c2ccnc4ccc(C(N)=O)cc24)CCC3)n1` [Galunisertib] (top concentration 1000 nM), for which the “selective drug sensitivity score” value was determined as 0.

As for `COc1cc2c(N3CCN(C(=O)Nc4ccc(OC(C)C)cc4)CC3)ncnc2cc1OCCCN1CCCCC1` [Tandutinib] (top concentration 1000 nM), the “selective drug sensitivity score” value is 0.

Turning to `Cc1c(F)cc(C(=O)NC2CC2)cc1-c1ccc(C(=O)NCC(C)(C)C)cn1` [Losmapimod] (top concentration 10000 nM), the “selective drug sensitivity score” value is -0.18.

As to `Nc1nc(N)c2nc(-c3cccc(O)c3)c(-c3cccc(O)c3)nc2n1` [TG100-115] (top concentration 10000 nM), the “selective drug sensitivity score” value was -0.3.

`C[C@]12CC[C@@H]3c4ccc(O)cc4C[C@@H](CCCCCCCCC[S+]([O-])CCCC(F)(F)C(F)(F)F)[C@H]3[C@@H]1CC[C@@H]2O` (stereo not given in full) [Fulvestrant] (top concentration 1000 nM): the “selective drug sensitivity score” value is 0.

On to `O=C(Nc1cccnc1)N1CCC(Cc2cccc(Oc3ccc(C(F)(F)F)cn3)c2)CC1` [PF-3845] (top concentration 10000 nM), for which the “selective drug sensitivity score” value was found to be 3.26.

Take `COc1cc2c(cc1OCCCN1CCCC1)N=C(N)C21CCC1` [A-366] (top concentration 25000 nM): the “selective drug sensitivity score” value was -0.84.
